Measurements from BindingDB's records for doi:10.1080/14756360903179351 (University of Tehran, 2010).
“And” between values parts separate entries of the source, which are not always exact repeats. Equal values may be shown once. Where a name gives a salt, the structure may show the parent alone.

Target: T1, Polyphenol oxidase 1 (White button mushroom, UniProt Q00024)
T1 sequence (Q00024 whole entry): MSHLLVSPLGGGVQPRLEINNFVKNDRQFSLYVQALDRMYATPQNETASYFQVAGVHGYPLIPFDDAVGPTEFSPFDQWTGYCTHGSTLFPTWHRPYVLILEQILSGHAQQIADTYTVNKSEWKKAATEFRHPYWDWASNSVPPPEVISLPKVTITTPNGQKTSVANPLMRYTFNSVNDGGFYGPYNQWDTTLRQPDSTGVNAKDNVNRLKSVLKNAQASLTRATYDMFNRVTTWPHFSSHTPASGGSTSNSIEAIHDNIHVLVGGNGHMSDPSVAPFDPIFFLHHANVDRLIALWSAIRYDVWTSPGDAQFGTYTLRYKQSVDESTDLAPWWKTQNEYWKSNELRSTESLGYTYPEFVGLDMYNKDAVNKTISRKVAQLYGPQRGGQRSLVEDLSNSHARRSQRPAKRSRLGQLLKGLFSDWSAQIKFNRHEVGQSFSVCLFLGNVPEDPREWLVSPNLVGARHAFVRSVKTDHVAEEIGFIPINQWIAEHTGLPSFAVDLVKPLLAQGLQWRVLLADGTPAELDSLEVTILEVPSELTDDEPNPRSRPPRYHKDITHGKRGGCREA
Assay: MT Kinetic Assay
Conditions: pH 6.8
Procedure: The assay was performed as previously described with slight modifications [Chen et al., J. Agric. Food Chem., 50:4108-12]. The reaction medium was 1 mL in 50 mM phosphate buffer (pH 6.8). The final concentration of mushroom tyrosinase was 26.07 μg/mL for cresolase activity and 6.52 μg/mL for catecholase activity. Freshly prepared enzyme, substrate, and dithiocarbamates I and II were used in this work. The reaction was carried out under constant temperatures of 27 and 37°C. Substrate addition followed incubation of the enzyme with different concentrations of synthetic inhibitors.

SMILES: S=C(S)NCc1ccc(CNC(=S)S)cc1 [p-Xylidine-bis(dithiocarbamate) sodium salt (II)]
- Ki (27 °C): 0.64 µM and 0.29 µM
- Ki (37 °C): 0.95 µM and 1.05 µM

SMILES: S=C(S)NCc1ccccc1
- Ki (27 °C): 14.1 µM and 9.4 µM
- Ki (37 °C): 5.9 µM and 5.7 µM
